{
  "source": "patent US6905834B1",
  "about": "“Bioluminescent bioreporter integrated circuit detection methods” (UT-Battelle, LLC, priority 1997, dated 2005)",
  "type_in_all_cases": "cell-based, Pseudomonas putida",
  "key": {"P. putida TVA8": {"tested_on": "P. putida TVA8"}, "P. putida B2 [1]": {"tested_on": "P. putida B2", "experiment": "Assays of growing cells of tod-lux reporter P. putida B2", "conditions": "for bioluminescent response: 90 minutes exposure", "protocol": "(§1) In the batch and reactor studies, bioluminescence was measured using a photomultiplier, which converts the light to an electric current. The photomultiplier in the resting cell assays and the reactor system was connected to a computer and bioluminescence as namps current was recorded.\nAssays of growing cells were conducted as described by Heitzer et al. (1992). An overnight culture from a frozen stock of P. putida B2 was prepared in a 250-ml Erlenmeyer flask containing 100 ml LB and 50 μg ml^−1 kanamycin. A subculture was prepared and cells were used in mid-log phase (OD546 of 0.45-0.48). A 2.5-ml aliquot was added to 2.5 ml mineral salts medium (MSM) containing 0-50 mg L^−1 toluene or 10-100 μl of JP4 jet fuel-saturated MSM. The concentration of toluene in water saturated with JP4 jet fuel is approximately 8 mg L^−1 (Smith et al., 1981). Bioluminescence was measured every 30 min."}, "P. putida B2 [2]": {"tested_on": "P. putida B2", "experiment": "Resting cell assays of P. putida B2, single and multiple toluene exposures", "conditions": "10 mg/L toluene; for Bioluminescent response rate, Multiple Exposure Vial: single vial with multiple additions; for Bioluminescent response rate, Single Exposure Vials: new vial previously unexposed", "protocol": "as §1\nCells for resting cell assays were grown on MSM supplemented with 2.7 g L^−1 succinate. A culture of P. putida B2 was harvested at on OD546 of approximately 0.8. The cells were centrifuged at 15000×g for 10 min, and resuspended in MSM to OD546 of 0.6 four milliliters of culture were added to each of six 26-ml vials with Mininert valves (Dynatech, Chantilly, Va.) with stir bars. One vial was used for multiple toluene exposures, while the remainder were used for single exposures. The vials were magnetically stirred in a light-tight sampling cell. Toluene-saturated MSM and MSM alone were added to yield an OD546 of 0.47, and 10 mg L^−1 toluene was injected six times over a 130-h period of the multiple-exposure vial. At the same time points, a single-exposure vial was injected with 10 mg L^−1 toluene. The light response was recorded every 3 min with a photomultiplier connected to a data acquisition computer."}, "P. putida B2 [3]": {"tested_on": "P. putida B2", "experiment": "Immobilized cell reactor (DVR) with alginate-encapsulated P. putida B2: bioluminescence and TCE co-metabolism", "protocol": "as §1\nP. putida B2 was encapsulated in alginate beads for the immobilized cell reactor system. Cells were grown in 1 L LB to an OD546 of 1.2 and were centrifuged at 5500×g for 10 min, washed three times in 0.9% NaCl and suspended in 40 ml 0.9% NaCl. The cell suspension was added to 80 ml of an alginic acid solution (28 g L^−1 low viscosity alginate, 0.9% NaCl) (Webb, 1992). The cell-alginate suspension was placed in a 60-ml syringe, forced through a 25-gauge needle, and allowed to drop into a 0.5 M CaCl2 Solution. The alginate was cross-linked by the Ca^2+ ions, thus encapsulating the cells. The cells were subsequently placed in a fresh solution of 0.1 M CaCl2 and allowed to sit for 30 min prior to use.\nA differential volume reactor (DVR) was used to simulate a section of an ideal plug flow reactor. Influent to the reactor was dispersed through a porous metal frit to provide a flat velocity profile to the bed. The reactor measured 5.0 cm i.d.×5.0 cm long. A complete description of this reactor can be found in Webb et al. (1991). In this investigation, a system was designed incorporating the DVR as illustrated in FIG. 17. The system was equipped with three Millipore (Bedford, Mass.) stainless steel substrate containers rated to 690 kPa. The feed from the substrate vessels to the reactor inlet was controlled by two Filson (Middleton, Wis.) 301 HPLC pumps. A flow rate of 0.4 ml min^−1 was maintained. The substrate vessels were pressurized with oxygen to provide the system with an electron acceptor. All medium vessels contained trace mineral medium (Lackey et al., 1993) with the addition of 3 mg L^−1 pyruvic acid and a 0.1 M solution of Tris-base (pH 7.0). phosphate buffers were not used since phosphate ions complex with Ca^2+ ions and disrupt with alginate crosslinking. In addition to this medium, two of the vessels contained either TCE or toluene. The inlet concentration of toluene was altered by using square-wave perturbations with 20-h cycles (10 h with toluene, 10 h without toluene) using an HPLC pump controlled by a timer. During feed portions of the cycle, 10 mg L^−1 toluene was introduced into the inlet of the reactor. The inlet TCE concentration was constant at 20 mg L^−1.\nAnalysis of TCE in the reactor effluent was performed online using a stripping column (12.5 cm length and 0.4 cm inner diameter) packed with 3-mm glass beads to provide adequate surface area for TCE separation. TCE was stripped with helium, the GC carrier gas. The stripping column outlet was attached to a gas chromatograph (GC, Hewlett Packard (Wilmington, Del.) (HP) 5890 Series II) with an electron capture detector by a heated sample line maintained at 75° C. Automatic injections (25 μl) were made by a computerized control process (HP Chem Station software). The GC was equipped with a cross-linked methyl silicone capillary column (length 30 n, i.d 0.2 mm, 0.33-μm film thickness) while the oven was operated isothermally at 60° C. Other operating parameters included an injection temperature of 150° C., detector temperature of 200° C. and a split ratio of 10:1. This system was equipped with a bypass line around the reactor in order to calibrate the stripping column.\nToluene samples were removed at 0.5-ml aliquots from the effluent sampling port (FIG. 17) and injected into 1.5 ml sample vials. Headspace analysis was performed using a Shimadzu (Columbia, Md.) GC-9A gas chromatograph equipped with a 2.44-m, 3.2-mm diameter Poropak N packed column and a flame ionization detector. The isothermal temperature of the oven was 210° C., and both the detector and injector temperatures were 220° C."}},
  "note": "Like-named read-outs stand apart in the source and are kept apart here.",
  "data": [
    {"smiles": "Cc1ccccc1", "note": "[Toluene, toluene]", "values": [
      {"measurement": "light response (in words)", "setting": "P. putida TVA8; approximately 50 mg/L (JP-4 approx. 2%), 2 h", "result": "significant light response"},
      {"measurement": "bioluminescence relative to background bioluminescence level", "setting": "P. putida TVA8; at 50 μg toluene/L", "result": 80, "unit": "fold"},
      {"measurement": "Specific Bioluminescence", "setting": "P. putida TVA8; exposure 2 hours, approximately 50 mg/L, normalized to final OD546, average ± SD of three replicates", "result": "291 ± 6", "unit": "namp/OD"},
      {"measurement": "Specific Bioluminescence", "setting": "P. putida TVA8; toluene 50 mg/L, 2 h exposure", "result": 290, "unit": "namp/OD546"},
      {"measurement": "bioluminescent response (in words)", "setting": "P. putida B2 [1]; 0 and 0.01 mg/l toluene", "result": "not a significant bioluminescent response"},
      {"measurement": "bioluminescent response", "setting": "P. putida B2 [1]; 0.1 mg/l toluene", "result": 2.4, "unit": "namp"},
      {"measurement": "bioluminescent response", "setting": "P. putida B2 [1]; 10, 20 and 50 mg/l toluene", "result": "approximately 90 namp"},
      {"measurement": "maximum bioluminescent response", "setting": "P. putida B2 [2]; same for single and multiple exposures", "result": "573±127", "unit": "namp"},
      {"measurement": "Bioluminescent response rate, Multiple Exposure Vial", "setting": "P. putida B2 [2]; time point 1", "result": 95, "unit": "NAMP/HR"},
      {"measurement": "Bioluminescent response rate, Single Exposure Vials", "setting": "P. putida B2 [2]; time point 2", "result": 137, "unit": "NAMP/HR"},
      {"measurement": "Bioluminescent response rate, Multiple Exposure Vial", "setting": "P. putida B2 [2]; time point 2", "result": 321, "unit": "NAMP/HR"},
      {"measurement": "Bioluminescent response rate, Single Exposure Vials", "setting": "P. putida B2 [2]; time point 3", "result": 67, "unit": "NAMP/HR"},
      {"measurement": "Bioluminescent response rate, Multiple Exposure Vial", "setting": "P. putida B2 [2]; time point 3", "result": 642, "unit": "NAMP/HR"},
      {"measurement": "Bioluminescent response rate, Single Exposure Vials", "setting": "P. putida B2 [2]; time point 4", "result": 60, "unit": "NAMP/HR"},
      {"measurement": "Bioluminescent response rate, Multiple Exposure Vial", "setting": "P. putida B2 [2]; time point 4", "result": 768, "unit": "NAMP/HR"},
      {"measurement": "Bioluminescent response rate, Single Exposure Vials", "setting": "P. putida B2 [2]; time point 5", "result": 60, "unit": "NAMP/HR"},
      {"measurement": "Bioluminescent response rate, Multiple Exposure Vial", "setting": "P. putida B2 [2]; time point 5", "result": 737, "unit": "NAMP/HR"},
      {"measurement": "Bioluminescent response rate, Single Exposure Vials", "setting": "P. putida B2 [2]; time point 6", "result": 49, "unit": "NAMP/HR"},
      {"measurement": "Bioluminescent response rate, Multiple Exposure Vial", "setting": "P. putida B2 [2]; time point 6", "result": 973, "unit": "NAMP/HR"},
      {"measurement": "maximum light response", "setting": "P. putida B2 [3]; 10 mg/L toluene square-wave feed, 20 mg/L TCE", "result": "43.4±6.8", "unit": "namp"},
      {"measurement": "rate of light response decrease", "setting": "P. putida B2 [3]; after the toluene feed was stopped", "result": "3.4±0.8", "unit": "namp/hr"},
      {"measurement": "rate of light emission increase", "setting": "P. putida B2 [3]; during toluene feed cycle, 10 mg/L toluene, 20 mg/L TCE", "result": "16.3±1.2", "unit": "namp/hr"},
      {"measurement": "effluent toluene concentration", "setting": "P. putida B2 [3]; inlet toluene 10 mg/L", "result": "5.8 ± 0.1", "unit": "mg/L"},
      {"measurement": "toluene removal", "setting": "P. putida B2 [3]; inlet toluene 10 mg/L", "result": 50, "unit": "%"},
      {"measurement": "ratio toluene degraded to TCE degraded", "setting": "P. putida B2 [3]; steady state in DVR", "result": "1.7 μmol toluene degraded/μmol TCE degraded"}
    ]}
  ]
}
